In patent US20240101592A1, “COMPOSITIONS AND METHODS FOR TREATING CNS DISORDERS” (Sage Therapeutics, Inc., priority 2020, published 2024):

Target: GABAA receptor ([35S]-TBPS binding, rat brain cortical membranes)
Assay: Steroid inhibition of [35S]-TBPS binding
Conditions: 3 nM [35S]-TBPS, in the presence of 5 mM GABA, 90 min at room temp
Experimental: Steroid Inhibition of TBPS Binding
[^35S]-t-Butylbicyclophosphorothionate (TBPS) binding assays using rat brain cortical membranes in the presence of 5 mM GABA has been described (Gee et al, J. Pharmacol. Exp. Ther. 1987, 241, 346-353; Hawkinson et al, Mol. Pharmacol. 1994, 46, 977-985; Lewin, A. H et al., Mol. Pharmacol. 1989, 35, 189-194).
Briefly, cortices are rapidly removed following decapitation of carbon dioxide-anesthetized Sprague-Dawley rats (200-250 g). The cortices are homogenized in 10 volumes of ice-cold 0.32 M sucrose using a glass/teflon homogenizer and centrifuged at 1500×g for 10 min at 4° C. The resultant supernatants are centrifuged at 10,000×g for 20 min at 4° C. to obtain the P2 pellets. The P2 pellets are resuspended in 200 mM NaCl/50 mM Na—K phosphate pH 7.4 buffer and centrifuged at 10,000×g for 10 min at 4° C. This washing procedure is repeated twice and the pellets are resuspended in 10 volumes of buffer. Aliquots ([…]) of the membrane suspensions are incubated with 3 nM [^35S]-TBPS and […] aliquots of test drug dissolved in dimethyl sulfoxide (DMSO) (final 0.5%) in the presence of 5 mM GABA. The incubation is brought to a final volume of 1.0 mL with buffer. Nonspecific binding is determined in the presence of […] and ranged from 15 to 25%. Following a 90 min incubation at room temp, the assays are terminated by filtration through glass fiber filters (Schleicher and Schuell No. 32) using a cell harvester (Brandel) and rinsed three times with ice-cold buffer. Filter bound radioactivity is measured by liquid scintillation spectrometry. Non-linear curve fitting of the overall data for each drug averaged for each concentration is done using Prism (GraphPad). […] The concentration of test compound producing 50% inhibition (IC50) of specific binding and the maximal extent of inhibition (Imax) are determined for the individual experiments with the same model used for the overall data and then the means±SEM.s of the individual experiments are calculated.
Various compounds are or can be screened to determine their potential as modulators of [^35S]-TBPS binding in vitro. These assays are or can be performed in accordance with the above.

C[C@@]1(O)CC[C@H]2[C@H](CC[C@@H]3[C@@H]2CC[C@@]2(C)[C@H]3C[C@H]3C[C@H]3[C@@H]2[C@](C)(O)Cn2cc(C#N)cn2)C1 [Compound No. 2, 1-((S)-2-hydroxy-2-((2R,4aS,4bR,6aS,7S,7aR,8aR,9aS,9bR,11aR)-2-hydroxy-2,6a-dimethyloctadecahydro-1H-cyclopropa[b]chrysen-7-yl)propyl)-1H-pyrazole-4-carbonitrile]
IC50: < 100 nM

C[C@@]1(O)CC[C@H]2[C@H](CC[C@@H]3[C@@H]2CC[C@@]2(C)[C@H]3C[C@H]3C[C@H]3[C@@H]2[C@@](C)(O)Cn2cc(C#N)cn2)C1 [Compound No. 3]
IC50: < 100 nM

C[C@@]1(O)CC[C@H]2[C@H](CC[C@@H]3[C@@H]2CC[C@@]2(C)[C@H]3[C@@H]3C[C@@H]3[C@@H]2[C@](C)(O)Cn2cc(C#N)cn2)C1 (single isomer, unassigned) [Compound No. 12]
IC50: < 100 nM

COC[C@@]1(O)CC[C@H]2[C@@H](CC[C@@H]3[C@@H]2CC[C@@]2(C)[C@H]3[C@@H]3C[C@@H]3[C@@H]2[C@H](C)Cn2nnc(C)n2)C1 [Compound No. 17, (2R,4aS,4bR,6aS,7R,7aS,8aR,8bR,8cR,10aS)-2-(methoxymethyl)-6a-methyl-7-((S)-1-(5-methyl-2H-tetrazol-2-yl)propan-2-yl)octadecahydrocyclopropa[4,5]cyclopenta[1,2-a]phenanthren-2-ol]
IC50: 100 to 1000 nM

Cc1nnn(C[C@@H]2C[C@H]2[C@H]2CC[C@H]3[C@@H]4CC[C@@H]5C[C@](C)(O)CC[C@@H]5[C@H]4CC[C@]23C)n1 [Compound No. 28, (3R,5R,8R,9R,10S,13S,14S,17R)-3,13-dimethyl-17-((1S,2R)-2-((5-methyl-2H-tetrazol-2-yl)methyl)cyclopropyl)hexadecahydro-1H-cyclopenta[a]phenanthren-3-ol]
IC50: < 100 nM

C[C@@]1(O)CC[C@H]2[C@H](CC[C@@H]3[C@@H]2CC[C@@]2(C)[C@H]3C[C@H]3C[C@H]3[C@@H]2C(=O)Cn2cc(C#N)cn2)C1 [Compound No. 1, 1-(2-((2R,4aS,4bR,6aS,7S,7aR,8aR,9aS,9bR,11aR)-2-hydroxy-2,6α-dimethyloctadecahydro-1H-cyclopropa[b]chrysen-7-yl)-2-oxoethyl)-1H-pyrazole-4-carbonitrile]
IC50: < 100 nM

C[C@@H](Cn1cc(C#N)cn1)[C@H]1[C@@H]2C[C@@H]2C[C@H]2[C@@H]3CC[C@@H]4C[C@](C)(O)CC[C@@H]4[C@H]3CC[C@]12C [Compound No. 4, 1-((R)-2-((2R,4aS,4bR,6aS,7R,7aR,8aR,9aS,9bR,11aR)-2-hydroxy-2,6a-dimethyloctadecahydro-1H-cyclopropa[b]chrysen-7-yl)propyl)-1H-pyrazole-4-carbonitrile]
IC50: < 100 nM

C[C@@]1(O)CC[C@H]2[C@H](CC[C@@H]3[C@@H]2CC[C@]2(C)[C@@H]([C@H]4C[C@@H]4Cn4cc(C#N)cn4)CC[C@@H]32)C1 [Compound No. 24, 1-(((1S,2R)-2-((3R,5R,8R,9R,10S,13S,14S,17R)-3-hydroxy-3,13-dimethylhexadecahydro-1H-cyclopenta[a]phenanthren-17-yl)cyclopropyl)methyl)-1H-pyrazole-4-carbonitrile]
IC50: < 100 nM

C[C@@]1(O)CC[C@@]2(C)[C@@H](CC[C@@H]3[C@@H]2CC[C@@]24C[C@@]32CC[C@@H]4C(=O)Cn2cc(C#N)cn2)C1 [Compound No. 23, 1-(2-((3R,5S,8R,9S,10S,13S,14S,17S)-3-hydroxy-3,10-dimethyltetradecahydro-1H-13,14-methanocyclopenta[a]phenanthren-17-yl)-2-oxoethyl)-1H-pyrazole-4-carbonitrile]
IC50: < 100 nM

Cc1nnnn1C[C@H]1C[C@@H]1[C@H]1CC[C@H]2[C@@H]3CC[C@@H]4C[C@](C)(O)CC[C@@H]4[C@H]3CC[C@]12C [Compound No. 26, (3R,5R,8R,9R,10S,13S,14S,17R)-3,13-dimethyl-17-((1R,2S)-2-((5-methyl-1H-tetrazol-1-yl)methyl)cyclopropyl)hexadecahydro-1H-cyclopenta[a]phenanthren-3-ol]
IC50: < 100 nM

CCC[C@@]1(O)CC[C@H]2C(CC[C@@H]3[C@@H]2CC[C@@]2(C)[C@H]3[C@@H]3C[C@@H]3[C@@H]2C(=O)Nc2ccc(C#N)cn2)C1 (stereo in doubt) [Compound No. 15, (2R,4aS,4bR,6aS,7S,7aS,8aR,8bR,8cR,10aR)-N-(5-cyanopyridin-2-yl)-2-hydroxy-6a-methyl-2-propyloctadecahydrocyclopropa[4,5]cyclopenta[1,2-a]phenanthrene-7-carboxamide]
IC50: < 100 nM

CC(Cn1cc(C#N)cn1)[C@H]1[C@H]2C[C@H]2[C@H]2[C@@H]3CC[C@@H]4C[C@](C)(O)CC[C@@H]4[C@H]3CC[C@@]21C (single isomer, unassigned) [Compound No. 10]
IC50: < 100 nM

CCC[C@@]1(O)CC[C@@]2(C)[C@@H](CC[C@H]3[C@@H]4[C@@H]5C[C@@H]5[C@H]([C@@](C)(O)Cn5cc(C#N)cn5)[C@@]4(C)CC[C@@H]32)C1 [Compound No. 14, 1-((R)-2-hydroxy-2-((2R,4aS,4bS,6aS,7S,7aS,8aR,8bS,8cR,10aS)-2-hydroxy-4a,6a-dimethyl-2-propyloctadecahydrocyclopropa[4,5]cyclopenta[1,2-a]phenanthren-7-yl)propyl)-1H-pyrazole-4-carbonitrile]
IC50: > 1000 nM

C[C@@]1(O)CC[C@H]2[C@H](CC[C@@H]3[C@@H]2CC[C@]2(C)[C@@H]([C@@H]4C[C@H]4Cn4cc(C#N)cn4)CC[C@@H]32)C1 [Compound No. 25, 1-(((1R,2S)-2-((3R,5R,8R,9R,10S,13S,14S,17R)-3-hydroxy-3,13-dimethylhexadecahydro-1H-cyclopenta[a]phenanthren-17-yl)cyclopropyl)methyl)-1H-pyrazole-4-carbonitrile]
IC50: < 100 nM

C[C@@]1(O)CC[C@H]2[C@H](CC[C@@H]3[C@@H]2CC[C@@]2(C)[C@H]3C[C@@H]3C[C@@H]3[C@@H]2C(=O)Cn2cc(C#N)cn2)C1 [Compound No. 6, 1-(2-((2R,4aS,4bR,6aS,7S,7aS,8aS,9aS,9bR,11aR)-2-hydroxy-2,6a-dimethyloctadecahydro-1H-cyclopropa[b]chrysen-7-yl)-2-oxoethyl)-1H-pyrazole-4-carbonitrile]
IC50: < 100 nM

C[C@@]1(O)CC[C@H]2[C@H](CC[C@@H]3[C@@H]2CC[C@@]2(C)[C@H]3[C@@H]3C[C@@H]3[C@@H]2[C@@](C)(O)Cn2cc(C#N)cn2)C1 (single isomer, unassigned) [Compound No. 13]
IC50: < 100 nM

COC[C@@]1(O)CC[C@H]2[C@@H](CC[C@@H]3[C@@H]2CC[C@@]2(C)[C@H]3[C@@H]3C[C@@H]3[C@@H]2C(C)=O)C1 [Compound No. 16, 1-((2R,4aS,4bR,6aS,7S,7aS,8aR,8bR,8cR,10aS)-2-hydroxy-2-(methoxymethyl)-6a-methyloctadecahydrocyclopropa[4,5]cyclopenta[1,2-a]phenanthren-7-yl)ethanone]
IC50: < 100 nM

C[C@H](Cn1cc(C#N)cn1)[C@H]1[C@@H]2C[C@@H]2C[C@H]2[C@@H]3CC[C@@H]4C[C@](C)(O)CC[C@@H]4[C@H]3CC[C@]12C [Compound No. 5, 1-((S)-2-((2R,4aS,4bR,6aS,7R,7aR,8aR,9aS,9bR,11aR)-2-hydroxy-2,6a-dimethyloctadecahydro-1H-cyclopropa[b]chrysen-7-yl)propyl)-1H-pyrazole-4-carbonitrile]
IC50: < 100 nM

COC[C@@]1(O)CC[C@H]2[C@@H](CC[C@@H]3[C@@H]2CC[C@@]2(C)[C@H]3[C@@H]3C[C@@H]3[C@@H]2[C@@H](C)Cn2nnc(C)n2)C1 [Compound No. 18, (2R,4aS,4bR,6aS,7R,7aS,8aR,8bR,8cR,10aS)-2-(methoxymethyl)-6a-methyl-7-((R)-1-(5-methyl-2H-tetrazol-2-yl)propan-2-yl)octadecahydrocyclopropa[4,5]cyclopenta[1,2-a]phenanthren-2-ol]
IC50: 100 to 1000 nM

Cc1nnnn1C[C@@H]1C[C@H]1[C@H]1CC[C@H]2[C@@H]3CC[C@@H]4C[C@](C)(O)CC[C@@H]4[C@H]3CC[C@]12C [Compound No. 27, (3R,5R,8R,9R,10S,13S,14S,17R)-3,13-dimethyl-17-((1S,2R)-2-((5-methyl-1H-tetrazol-1-yl)methyl)cyclopropyl)hexadecahydro-1H-cyclopenta[a]phenanthren-3-ol]
IC50: 100 to 1000 nM
